The record followed here is patent US10780090B2, “Heteroaryl compounds useful as inhibitors of SUMO activating enzyme” (Millennium Pharmaceuticals, Inc., priority 2014, dated 2020).

The target of the experiment is recombinant human SAE enzyme (Homo sapiens (Human), UniProt Q9UBT2). In words: SAE HTRF enzyme assay. Conditions: for Percent Inhibition: Concentration 0.111 μM; for IC50: class symbols A/B/C. In kind it is biochemical. An outline of the steps:
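HTRF read-out using Eu-cryptate anti-Flag and allophycocyanin anti-GST antibodies, added with EDTA stop buffer and read after 2 h at 24 °C. The preceding reaction ran 105 min at 24 °C: 0.11 nM recombinant SAE, 0.5 μM ATP, Sumo-Flag, Ubc9-GST, pH 7.5. Values given as single-concentration inhibition or IC50.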

Chain of recombinant human SAE enzyme (Q9UBT2 whole entry): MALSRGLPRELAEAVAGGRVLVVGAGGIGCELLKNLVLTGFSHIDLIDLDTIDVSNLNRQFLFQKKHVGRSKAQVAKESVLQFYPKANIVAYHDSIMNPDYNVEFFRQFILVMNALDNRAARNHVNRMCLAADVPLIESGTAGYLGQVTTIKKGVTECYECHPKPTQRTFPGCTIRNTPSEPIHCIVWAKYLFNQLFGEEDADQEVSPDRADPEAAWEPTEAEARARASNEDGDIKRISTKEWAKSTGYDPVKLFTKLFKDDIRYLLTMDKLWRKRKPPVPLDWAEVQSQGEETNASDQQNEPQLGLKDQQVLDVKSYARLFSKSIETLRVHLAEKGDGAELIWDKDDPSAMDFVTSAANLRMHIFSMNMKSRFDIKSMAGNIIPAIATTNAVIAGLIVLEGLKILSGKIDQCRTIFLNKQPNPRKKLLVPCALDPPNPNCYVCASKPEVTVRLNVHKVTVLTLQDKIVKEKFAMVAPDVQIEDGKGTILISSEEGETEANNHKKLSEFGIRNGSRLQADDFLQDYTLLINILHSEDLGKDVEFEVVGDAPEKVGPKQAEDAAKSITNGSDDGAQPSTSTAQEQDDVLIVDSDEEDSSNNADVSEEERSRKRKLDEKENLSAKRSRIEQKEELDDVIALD
Chain of recombinant human SAE enzyme (Q9UBE0 whole entry partner): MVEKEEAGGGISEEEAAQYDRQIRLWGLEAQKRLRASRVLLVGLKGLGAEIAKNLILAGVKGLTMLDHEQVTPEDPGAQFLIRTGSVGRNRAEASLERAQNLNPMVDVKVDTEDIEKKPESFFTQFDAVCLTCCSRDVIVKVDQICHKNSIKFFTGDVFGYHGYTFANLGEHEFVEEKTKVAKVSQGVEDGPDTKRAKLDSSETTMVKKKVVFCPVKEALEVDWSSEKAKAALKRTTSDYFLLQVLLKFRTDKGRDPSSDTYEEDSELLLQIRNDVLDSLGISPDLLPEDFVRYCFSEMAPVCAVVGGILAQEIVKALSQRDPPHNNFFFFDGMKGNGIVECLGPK

With `NS(=O)(=O)OC[C@H]1C[C@@H](Nc2ncncc2C(=O)c2cc([C@H](O)C3CCOCC3)c(Cl)s2)C[C@@H]1O` (mixture of isomers) [I-174, [(1R,2S,4R)-4-{[5-({5-chloro-4-[(R)-hydroxy(tetrahydro-2H-pyran-4-yl)methyl]-2-thienyl}carbonyl)pyrimidin-4-yl]amino}-2-hydroxycyclopentyl]methyl sulfamate and [(1R,2S,4R)-4-{[5-({5-chloro-4-[(S)-hydroxy(tetrahydro-2H-pyran-4-yl)methyl]-2-thienyl}carbonyl)pyrimidin-4-yl]amino}-2-hydroxycyclopentyl]methyl sulfamate], the “Percent Inhibition” value is 89 and the IC50 was 10 to 100 nM.

`CC(C)[C@@H](O)c1cc(C(=O)c2cncnc2N[C@@H]2C[C@H](COS(N)(=O)=O)[C@@H](O)C2)sc1Cl` (mixture of isomers) [I-195, [(1R,2S,4R)-4-{[5-({5-chloro-4-[(1R)-1-hydroxy-2-methylpropyl]-2-thienyl}carbonyl)pyrimidin-4-yl]amino}-2-hydroxycyclopentyl]methyl sulfamate and [(1R,2S,4R)-4-{[5-({5-chloro-4-[(1S)-1-hydroxy-2-methylpropyl]-2-thienyl}carbonyl)pyrimidin-4-yl]amino}-2-hydroxycyclopentyl]methyl sulfamate]: the “Percent Inhibition” value worked out at 68 and the IC50 is 10 to 100 nM.

As for `C=C(C)[C@@H](O)c1coc(C(=O)c2cncnc2N[C@@H]2C[C@H](COS(N)(=O)=O)[C@@H](O)C2)c1.C=C(C)[C@H](O)c1coc(C(=O)c2cncnc2N[C@@H]2C[C@H](COS(N)(=O)=O)[C@@H](O)C2)c1` (mixture of isomers) [I-197, {(1R,2S,4R)-2-Hydroxy-4-[(5-{4-[(1S)-1-hydroxy-2-methylprop-2-en-1-yl]-2-furoyl}pyrimidin-4-yl)amino]cyclopentyl)methyl sulfamate and {(1R,2S,4R)-2-Hydroxy-4-[(5-{4-[(1R)-1-hydroxy-2-methylprop-2-en-1-yl]-2-furoyl}pyrimidin-4-yl)amino]cyclopentyl}methyl sulfamate], the “Percent Inhibition” value is 69 and the IC50 is 10 to 100 nM.

On to `NS(=O)(=O)OC[C@H]1C[C@@H](Nc2ncncc2C(=O)c2cc([C@@]3(c4cccc(Cl)c4)CCCS3)cs2)C[C@@H]1O` (mixture of isomers) [I-209, {(1R,2S,4R)-4-[(5-{[(2S)-2-(3-chlorophenyl)-2,3,4,5-tetrahydro-2,3′-bithiophen-5′-yl]carbonyl}pyrimidin-4-yl)amino]-2-hydroxycyclopentyl}methyl sulfamate and {(1R,2S,4R)-4-[(5-{[(2R)-2-(3-chlorophenyl)-2,3,4,5-tetrahydro-2,3′-bithiophen-5′-yl]carbonyl}pyrimidin-4-yl)amino]-2-hydroxycyclopentyl}methyl sulfamate], for which the “Percent Inhibition” value was found to be 45 and the IC50 was in the range of 100 to 1000 nM.

Turning to `C[C@@H]1CCCN(Cc2csc(C(=O)c3cncnc3N[C@@H]3C[C@H](COS(N)(=O)=O)[C@@H](O)C3)c2)C1` (mixture of isomers) [I-225, [(1R,2S,4R)-2-hydroxy-4-({5-[(4-{[(3R)-3-methylpiperidin-1-yl]methyl}-2-thienyl)carbonyl]pyrimidin-4-yl}amino)cyclopentyl]methyl sulfamate and [(1R,2S,4R)-2-hydroxy-4-({5-[(4-{[(3S)-3-methylpiperidin-1-yl]methyl}-2-thienyl)carbonyl]pyrimidin-4-yl}amino)cyclopentyl]methyl sulfamate], the “Percent Inhibition” value turned out to be 33 and the IC50 is 100 to 1000 nM.
